For assay [1], the system named is cord-blood CD34^+ cells (HSC). Briefly: Human immune engraftment (% hCD45) in irradiated NSG mice injected with the progeny of ex vivo cultured cord-blood CD34+ cells. Here is the method: The progeny of 7,500 cord-blood CD34+ cells was cultured under modified air-liquid interface (ALI) conditions for 10 days and injected in irradiated adult NSG mice. Cells were cultured in cytokine-containing (SCF, TPO, FLT-3L) serum-free media (StemSpan™ SFEM, LDL) containing UM729 (40 nM) with or without the addition of aryl hydrocarbon receptor (AhR) receptor antagonist CH-223191 (1 μM). Human immune reconstitution, expressed by the percentage of human CD45 (hCD45) over total CD45, was monitored in peripheral blood after 7, 14 and 25 weeks post-transplantation by flow cytometry. Mean percentage of human CD45 cell engraftment for 2 mice per condition is shown. […]
Since the ultimate aim is to improve the expansion of engraftable human HSC, the validation methods largely rely on the measurement of immune reconstitution, both short-term and long-term, after transplantation in a humanized mice model. Briefly, NSG mice (Jackson Laboratories, strain 005557) were sublethally irradiated at 2Gy 4 to 24 hours prior to CD34^+ cells intravenous (IV) injection. All harvested cells from 1 culture well were injected into one mouse. Wells from all conditions started with equal numbers of CD34^+ cells from the same source/donor. Therefore, all the progeny of a culture setting was injected into mice. Peripheral blood of humanized mice was harvested every 5 weeks, and human engraftment and immune reconstitution were analyzed by flow cytometry. The earliest point where human engraftment in mice was measured was after 5 weeks and the latest after 35 weeks. The impact of the ALI culture system on HSC engraftment capacity was assessed using base media purchased from STEMCELL Technologies (StemSpan SFEM). A dramatic effect of the ALI methodology on the engraftment of cord-blood HSC was observed relative to the published manual fed-batch culture methodology^4, which includes SCF, TPO, FLT3L and UM171 (FIG. 4).

Assay [2] relates to Cord-blood CD34^+ cells. As to the kind of experiment: Ex vivo expansion of the CD34+ population from cord-blood CD34+ cells, counted by flow cytometry. In kind it is cell-based, human. The note with it: for expansion in CD34^+ population: UM171 40 nM, 10 days, SCF/TPO/FLT-3L StemSpan SFEM II. The method, then: Cord-blood CD34^+ cells were cultured under manual fed-batch (FB) or modified air-liquid interface (ALI) conditions for 10 days. Cells were cultured in cytokine-containing (SCF, TPO, FLT-3L) serum-free media (StemSpan™ SFEM II) where UM171 (40 nM) was added. CD34^+ cells total number was assessed by flow cytometry using […] beads (BD).
The progeny of 7,500 cord-blood CD34^+ cells was cultured under manual fed-batch (FB) conditions for 6 days and injected in irradiated adult NSG mice. Cells were cultured in cytokine-containing (SCF, TPO, FLT-3L) serum-free media (StemSpan SFEM II) where UM729 (500 nM) or a HTR1F-specific agonist LY573144 (250 nM final concentration) was added. The progeny of an equal number of CD34^+ cells cultured in the same conditions but without UM729 or LY573144 from the same source was used to determine baseline expansion (threshold indicated by the dotted line) and engraftment. Expansion fold, compared to untreated condition, of the CD34^+ population after 6 days of ex vivo culture is shown in the left panel. Human immune reconstitution was monitored in peripheral blood (middle panel) and bone marrow (right panel) at week 25 post-transplantation as described above. Mean percentage of human CD45 cell engraftment for 2 mice per condition is shown.
An experimental setup was designed where oxygen exchange in the media would be maximized, while adopting the principles of fed-batch cultures (FB) in which medium is renewed and in sufficient quantity to provide nutrients while diluting cell waste. […] In doing so, the maximum of cells was placed directly at the air-liquid interface so that gas exchanges are more efficient. Briefly, HSC were enriched based on CD34 expression marker, from cord-blood units using the Miltenyi CD34 MicroBead Kit UltraPure according to manufacturer's instruction. Purity was determined by flow cytometry using monoclonal CD34-PE antibodies (Clone 581, BD Pharmingen, 555822). […]
Using this culture method, the expansion of the stem cell population (defined as CD34^+ cells) in the culture wells after 10 days was first assessed. […]
For orientation: A flow cytometer gives signals particle by particle.

Assay [3] concerns human CB CD34+ (HSC engraftment). Briefly: In vivo administration of HTR1F agonist to NSG mice humanized with uncultured cord-blood CD34+ cells; human chimerism by flow cytometry. The note with it: 0.3 mg (10 mg/kg) intraperitoneally at 6 h, 24 h, 48 h. The method, then: 38,000 human CB CD34+ were injected intravenously into irradiated NSG mice (n=8, 16 hrs after irradiation). Starting from 6 hours post-transplantation, half of the mice (n=4) received, by intraperitoneal injection, 0.3 mg of Lasmiditan diluted in 0.02% DMSO in PBS (drug), for a total of 4 doses in regular intervals (6 h, 24 h, 48 h and 72 h) after human HSC injection. The second half (control) received I.P. injection of vehicle (0.02% DMSO in PBS) (n=4; vehicle). Human chimerism was assessed on peripheral blood until 19 weeks post-transplantation as described above, after which time mice were sacrificed and spleen and bone marrow were analyzed. SEM are depicted.
Lasmiditan, purchased from AdooQ Bioscience (product number A14198), was dissolved in DMSO and ethanol solution. […] Purity and viability were assessed by flow cytometry using the following staining: CD34-APC (Biolegend 343510), CD19-PE (Biolegend, 302208), CD3-PE-Cy7 (Biolegend, 344816), CD45-APC-Cy7 (Biolegend, 368516), 7-AAD (BD Biosciences, 559925), 1 μL AnnV-FITC (Biolegend, 640906). […] The dose was determined based on previous work with LY344864 (used ex vivo above, FIG. 10) in kidney injury recovery studies^16 and is consistent with the dosage of Reyvow® (Lasmiditan) for the treatment of migraine. […]

[4] abbreviates: progeny of FB culture with LY573144 250 nM for 6 days, 25 weeks after injection.

`CN(C)[C@@H]1CCc2[nH]c3ccc(NC(=O)c4ccc(F)cc4)cc3c2C1.Cl` [LY344864, N-[(3R)-3-(Dimethylamino)-2,3,4,9-tetrahydro-1H-carbazol-6-yl]-4-fluorobenzamide hydrochloride]: the “peripheral blood engraftment (% hCD45)” value in assay [1] (LY344864 500 nM in StemSpan SFEM II with SCF/TPO/FLT-3L, 10 days, specifically ALI culture, vs media alone) is given as “greatly improved the peripheral blood engraftment”.
Consider `N[C@@H](Cc1cc(I)c(Oc2ccc(O)c(I)c2)c(I)c1)C(=O)O` [T3, triiodothyronine], for which the “engraftment of HSC in humanized mice (% hCD45+ lymphocytes in peripheral blood)” value in assay [1] (T3 45 ng/mL in SCF/TPO/FLT3L StemSpan SFEM containing UM171, FB culture 10 days, vs UM171 alone or with CH-223191) was “increased the engraftment of HSC”.
On to `Cn1nnc(-c2ccc3c(c2)[nH]c2nc(Cc4ccccc4)nc(NC4CCC(N)CC4)c23)n1` (stereo not shown) [UM171], for which the “expansion in CD34^+ population” value in assay [2] (ALI culture) and in assay [2] (fed-batch (FB) culture) was approximately 55 fold each time.
Turning to `CN1CCC(C(=O)c2cccc(NC(=O)c3c(F)cc(F)cc3F)n2)CC1` [LY573144, 2,4,6-Trifluoro-N-[6-[(1-methyl-4-piperidinyl)carbonyl]-2-pyridinyl]benzamide], the “presence of human immune cells (hCD45^+) in tissues of treated animals” value in assay [3] (72 h, analysed up to 19 weeks) was “found in blood, spleen and bone marrow”. Moreover, in assay [3] (72 h after 38,000 CD34+ cells, followed to 19 weeks, vs vehicle), the “reconstitution of the immune compartment (human chimerism)” value is recorded as “more robust reconstitution of the immune compartment”. The “expansion of the CD34^+ population compared to untreated condition” value in assay [2] (LY573144 250 nM, FB culture, 6 days) is reported as “two-fold”. For the same compound, in assay [1] (setting [4]), the “percentage of hCD45^+ cells in the blood” value was “higher percentages” and the “percentage of hCD45^+ cells in the bone marrow” value was “higher percentages”.
Regarding `Cc1ccccc1N=Nc1ccc(NC(=O)c2ccnn2C)c(C)c1` [CH-223191], in assay [1] (CH-223191 1 μM added to ALI culture containing UM729, 10 days, blood at 7, 14 and 25 weeks, vs without CH-223191), the “engraftment capacity of cultured HSC (% hCD45 in peripheral blood)” value was “did not further increase the engraftment capacity”.

(Values after patent US20260125645A1, “METHODS AND PHARMACOLOGICAL AGENTS FOR INCREASING EXPANSION, ENGRAFTMENT OR IMMUNE OUTPUT OF HUMAN HEMATOPOIETIC STEM CELLS IN TRANSPLANTATION AND DISEASE SETTINGS” (VALORISATION HSJ, LIMITED PARTNERSHIP, priority 2022, published 2026).)
